Experimental data from patent publication US20170313665A1, “HYDROXYALKYL-SUBSTITUTED PHENYLTRIAZOLE DERIVATIVES AND USES THEREOF” (BAYER PHARMA AKTIENGESELLSCHAFT, priority 2014, published 2017).
pIC50: −log10 of the molar value.

What was measured:
[1] = system: Wistar rats; test: Diuresis investigations in conscious rats kept in metabolism cages; type: in vivo, rat
Protocol: Wistar rats (220-450 g body weight) are kept with free access to feed (Altromin) and drinking water. During the experiment, the animals are kept with free access to drinking water for 4 to 8 or up to 24 hours individually in metabolism cages suitable for rats of this weight class (Tecniplast Deutschland GmbH, D-82383 Hohenpeiβenberg). At the beginning of the experiment, the animals are administered the test substance in a volume of 1 to 3 ml/kg body weight of a suitable solvent by means of gavage into the stomach. Control animals only receive solvent. Controls and substance tests are carried out in parallel on the same day. Control groups and substance-dose groups each consist of 4 to 8 animals. During the experiment, the urine excreted by the animals is collected continuously in a receiver at the base of the cage. The volume of urine per time unit is determined separately for each animal, and the concentration of urinary electrolytes is measured by standard methods of flame photometry. Before the beginning of the experiment, the body weight of the individual animals is determined.

[2] = target: T1, human V1a receptor (Homo sapiens, UniProt P37288); test: Cellular in vitro assay for vasopressin receptor activity, V1a receptor cell line (aequorin luminescence); type: cell-based; settings: CHO cell line transfected with human V1a receptor; [Arg8]-vasopressin at EC50; read-out: IC50 hV1a
T1 construct: expressed in transfected cells; host or cells: CHO K1 (ATCC), also stably transfected with a modified aequorin
Protocol: The identification of agonists and antagonists of the V1a and V2 vasopressin receptors from humans, rats and dogs as well as the quantification of the activity of the compounds of the invention is carried out using recombinant cell lines. These cell lines originally derive from a hamster's ovary epithelial cell (Chinese Hamster Ovary, CHO K1, ATCC: American Type Culture Collection, Manassas, Va. 20108, USA). The test cell lines constitutively express the human, rat or dog V1a or V2 receptors. […] The resulting vasopressin receptor cells react to stimulation of the recombinantly expressed V1a receptors by intracellular release of calcium ions, which can be quantified by the resulting photoprotein luminescence. […] The bioluminescence of the cell lines is detected using a suitable luminometer [Milligan G, Marshall F, Rees S, Trends in Pharmacological Sciences 17, 235-237 (1996)].
On the day before the assay, the cells are plated out in culture medium (DMEM/F12, 2% FCS, 2 mM glutamine, 10 mM HEPES, 5 μg/ml coelenterazine) in 384-well microtiter plates and kept in a cell incubator (96% humidity, 5% v/v CO2, 37° C.). […] The resulting light signal is measured immediately in the luminometer. […]

[3] = dosage p.o. 0.3 mg/kg, 0.3 mg/kg

T1 sequence (P37288 whole entry): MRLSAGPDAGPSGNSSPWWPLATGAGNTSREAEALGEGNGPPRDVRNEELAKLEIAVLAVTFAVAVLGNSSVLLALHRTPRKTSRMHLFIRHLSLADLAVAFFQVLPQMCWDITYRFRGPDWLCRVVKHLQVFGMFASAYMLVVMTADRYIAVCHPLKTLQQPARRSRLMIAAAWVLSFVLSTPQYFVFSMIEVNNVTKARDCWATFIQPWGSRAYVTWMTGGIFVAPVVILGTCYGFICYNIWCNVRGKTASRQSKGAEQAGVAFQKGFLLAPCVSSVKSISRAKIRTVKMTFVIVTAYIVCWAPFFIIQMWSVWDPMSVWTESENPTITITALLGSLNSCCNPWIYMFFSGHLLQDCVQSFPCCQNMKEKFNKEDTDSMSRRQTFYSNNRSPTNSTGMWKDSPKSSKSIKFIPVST

COc1ccccc1-n1nc(Cn2nc(-c3ccc(Cl)cc3)n(C[C@H](O)C(F)(F)F)c2=O)nc1C(C)O (single isomer, unassigned) [Example 11]
Urinary volume [% vs. control = 100%] [1, 3]: 159 % vs. control = 100%
Urinary volume [% vs. control = 100%] ([1]; dosage p.o. 3.0 mg/kg, 3 mg/kg): 443 % vs. control = 100%

COc1ccccc1-n1nc(Cn2nc(-c3ccc(Cl)cc3)n(C[C@H](O)C(F)(F)F)c2=O)nc1C(C)O (single isomer, unassigned) [Example 12]
Urinary volume [% vs. control = 100%] [1, 3]: 96 % vs. control = 100%
Urinary volume [% vs. control = 100%] ([1]; dosage p.o. 3.0 mg/kg, 3 mg/kg): 323 % vs. control = 100%

CC(O)c1nc(Cn2nc(-c3ccc(Cl)cc3)n(C[C@H](O)C(F)(F)F)c2=O)nn1-c1cc(F)cc(Cl)c1 (single isomer, unassigned) [Example 14]
Urinary volume [% vs. control = 100%] ([1]; dosage p.o. 1.0 mg/kg): 753 % vs. control = 100%

CC(O)c1nc(Cn2nc(-c3ccc(Cl)cc3)n(C[C@H](O)C(F)(F)F)c2=O)nn1-c1cc(F)cc(Cl)c1 (single isomer, unassigned) [Example 15]
Urinary volume [% vs. control = 100%] ([1]; dosage p.o. 0.3 mg/kg): 412 % vs. control = 100%
Urinary volume [% vs. control = 100%] ([1]; dosage p.o. 3.0 mg/kg): 1085 % vs. control = 100%

CC(O)c1nc(Cn2nc(-c3ccc(Cl)cc3)n(C[C@H](O)C(F)(F)F)c2=O)nn1-c1cc(F)ccc1Cl (single isomer, unassigned) [Example 59]
pIC50 [2]: 9.30

CC(O)c1nc(Cn2nc(-c3ccc(Cl)cc3)n(C[C@H](O)C(F)(F)F)c2=O)nn1-c1cc(F)ccc1Cl (single isomer, unassigned) [Example 60]
pIC50 [2]: 9.30

C[C@H](O)c1nc(Cn2nc(-c3ccc(Cl)cc3)n(C[C@H](O)C(F)(F)F)c2=O)nn1-c1cccc(F)c1 [Example 76, 5-(4-Chlorophenyl)-2-({1-(3-fluorophenyl)-5-[(1 S)-1-hydroxyethyl]-1H-1,2,4-triazol-3-yl}methyl)-4-[(2S)-3,3,3-trifluoro-2-hydroxypropyl]-2,4-dihydro-3H-1,2,4-triazol-3-one]
Urinary volume [% vs. control = 100%] ([1]; dosage p.o. 3.0 mg/kg): 1257 % vs. control = 100%

C[C@H](O)c1nc(Cn2nc(-c3ccc(Cl)cc3)n(C[C@H](O)C(F)(F)F)c2=O)nn1-c1cccc(Cl)c1 [Example 79, 5-(4-Chlorophenyl)-2-({1-(3-chlorophenyl)-5-[(1S)-1-hydroxyethyl]-1H-1,2,4-triazol-3-yl}methyl)-4-[(2S)-3,3,3-trifluoro-2-hydroxypropyl]-2,4-dihydro-3H-1,2,4-triazol-3-one]
Urinary volume [% vs. control = 100%] ([1]; dosage p.o. 3.0 mg/kg): 1312 % vs. control = 100%

C[C@@H](O)c1nc(Cn2nc(-c3ccc(Cl)cc3)n(C[C@H](O)C(F)(F)F)c2=O)nn1-c1ccccc1Cl [Example 83, 5-(4-Chlorophenyl)-2-({1-(2-chlorophenyl)-5-[(1R)-1-hydroxyethyl]-1H-1,2,4-triazol-3-yl}-methyl)-4-[(2S)-3,3,3-trifluoro-2-hydroxypropyl]-2,4-dihydro-3H-1,2,4-triazol-3-one]
Urinary volume [% vs. control = 100%] ([1]; dosage p.o. 3.0 mg/kg): 1094 % vs. control = 100%
